Measurements from patent US9944645B2, “Imidazotriazines and imidazopyrimidines as kinase inhibitors” (Incyte Holdings Corporation, priority 2006, dated 2018).

Molecular target: c-Met kinase (h-Met; histidine-tagged c-Met catalytic domain fusion protein) (Homo sapiens (Human), UniProt P08581)
Test: In Vitro c-Met Kinase Enzyme Assays
Format: biochemical
Settings: phosphorylation of poly Glu-Tyr, 5 μM ATP, 25 minutes at 30° C.
How it was run: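 His-tagged c-Met catalytic domain reacted 25 min at 30° C, within the linear initial-rate range. Phosphotyrosine detected by ELISA with peroxidase-labeled anti-phospho-tyrosine antibody and TMB, OD read at 450 nm (540 nm correction); IC50 from curve fit.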

c-Met kinase (h-Met; histidine-tagged c-Met catalytic domain fusion protein), sequence (P08581 1078-1345): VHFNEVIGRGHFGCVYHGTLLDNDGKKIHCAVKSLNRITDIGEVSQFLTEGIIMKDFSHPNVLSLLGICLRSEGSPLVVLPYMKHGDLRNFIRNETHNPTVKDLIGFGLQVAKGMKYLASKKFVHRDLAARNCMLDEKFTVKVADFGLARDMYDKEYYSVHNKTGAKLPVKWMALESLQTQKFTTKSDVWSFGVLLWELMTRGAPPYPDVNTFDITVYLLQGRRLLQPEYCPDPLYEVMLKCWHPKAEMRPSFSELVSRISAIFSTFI

Compound | IC50 [nM]
CC(c1ccc2ncccc2c1)c1cnc2ncc(-c3ccc(C(=O)N[C@H]4CC[C@H](O)CC4)c(F)c3)nn12 (stereo partly drawn) [Example 159, 2-Fluoro-N-(trans-4-hydroxycyclohexyl)-4-[7-(1-quinolin-6-ylethyl)imidazo[1,2-b][1,2,4]triazin-2-yl]benzamide] | < 500
CNC(=O)c1ccc(-c2cnc3ncc(C(C)c4ccc5ncccc5c4)n3n2)cc1F (stereo not drawn) [Example 160, 2-Fluoro-N-methyl-4-[7-(1-quinolin-6-ylethyl)imidazo[1,2-b][1,2,4]triazin-2-yl]benzamide] | < 500
COCC1(NC(=O)c2ccc(-c3cnc4ncc(C(C)c5ccc6ncccc6c5)n4n3)cc2F)CC1 (stereo not drawn) [Example 162, 2-Fluoro-N-[1-(methoxymethyl)cyclopropyl]-4-[7-(1-quinolin-6-ylethyl)imidazo[1,2-b][1,2,4]triazin-2-yl]benzamide] | < 500
COCC(C)NC(=O)c1ccc(-c2cnc3ncc(C4(c5ccc6ncccc6c5)CC4)n3c2)cc1F (stereo not drawn) [Example 163, 2-Fluoro-N-(2-methoxy-1-methylethyl)-4-[3-(1-quinolin-6-ylcyclopropyl)imidazo[1,2-a]pyrimidin-6-yl]benzamide] | < 500
O=C(c1ccc(-c2cnc3ncc(C4(c5ccc6ncccc6c5)CC4)n3c2)cc1F)N1CC[C@H](F)C1 [Example 164, 6-{1-[6-(3-Fluoro-4-[(3S)-3-fluoropyrrolidin-1-yl]carbonylphenyl)imidazo[1,2-a]pyrimidin-3-yl]cyclopropyl}quinoline] | < 500
O=C(NCc1ccccn1)c1ccc(-c2cnc3ncc(C4(c5ccc6ncccc6c5)CC4)n3c2)cc1F [Example 165, 2-Fluoro-N-(pyridin-2-ylmethyl)-4-[3-(1-quinolin-6-ylcyclopropyl)imidazo[1,2-a]pyrimidin-6-yl]benzamide] | < 500
O=C(NC1(c2ccccn2)CC1)c1ccc(-c2cnc3ncc(C4(c5ccc6ncccc6c5)CC4)n3c2)cc1F [Example 166, 2-Fluoro-N-(1-pyridin-2-ylcyclopropyl)-4-[3-(1-quinolin-6-ylcyclopropyl)imidazo[1,2-a]pyrimidin-6-yl]benzamide] | < 500
O=C(NC1CCN(c2ccccn2)C1)c1ccc(-c2cnc3ncc(C4(c5ccc6ncccc6c5)CC4)n3c2)cc1F (stereo not drawn) [Example 167, 2-Fluoro-N-(1-pyridin-2-ylpyrrolidin-3-yl)-4-[3-(1-quinolin-6-ylcyclopropyl)imidazo[1,2-a]pyrimidin-6-yl]benzamide] | < 500
O=C(N[C@@H]1CCOC1)c1ccc(-c2cnc3ncc(C4(c5ccc6ncccc6c5)CC4)n3c2)cc1F [Example 168, 2-Fluoro-4-[3-(1-quinolin-6-ylcyclopropyl)imidazo[1,2-a]pyrimidin-6-yl]-N-[(3R)-tetrahydrofuran-3-yl]benzamide] | < 500
O=C(NCC1CCCO1)c1ccc(-c2cnc3ncc(C4(c5ccc6ncccc6c5)CC4)n3c2)cc1F (stereo not drawn) [Example 169, 2-Fluoro-4-[3-(1-quinolin-6-ylcyclopropyl)imidazo[1,2-a]pyrimidin-6-yl]-N-(tetrahydrofuran-2-ylmethyl)benzamide] | < 500
O=C(NC1CC1)c1ccc(-c2cnc3ncc(C4(c5ccc6ncccc6c5)CC4)n3c2)cc1F [Example 170, N-Cyclopropyl-2-fluoro-4-[3-(1-quinolin-6-ylcyclopropyl)imidazo[1,2-a]pyrimidin-6-yl]benzamide] | < 500
COC[C@@H](NC(=O)c1ccc(-c2cnc3ncc(C4(c5ccc6ncccc6c5)CC4)n3c2)cc1F)C(C)C [Example 171, 2-Fluoro-N-[(1S)-1-(methoxymethyl)-2-methylpropyl]-4-[3-(1-quinolin-6-ylcyclopropyl)imidazo[1,2-a]pyrimidin-6-yl]benzamide] | < 500
NC(=O)c1ccc(-c2cnc3ncc(C4(c5ccc6ncccc6c5)CC4)n3c2)cc1F [Example 172, 2-Fluoro-4-[3-(1-quinolin-6-ylcyclopropyl)imidazo[1,2-a]pyrimidin-6-yl]benzamide] | < 500
CN(CCN(C)c1ccccn1)C(=O)c1ccc(-c2cnc3ncc(C4(c5ccc6ncccc6c5)CC4)n3c2)cc1F [Example 173, 2-Fluoro-N-methyl-N-2-[methyl(pyridin-2-yl)amino]ethyl-4-[3-(1-quinolin-6-ylcyclopropyl)imidazo[1,2-a]pyrimidin-6-yl]benzamide] | < 500
CNC(=O)c1ccc(-c2cnc3ncc(C4(c5ccc6ncccc6c5)CC4)n3c2)cc1Cl [Example 174, 2-Chloro-N-methyl-4-[3-(1-quinolin-6-ylcyclopropyl)imidazo[1,2-a]pyrimidin-6-yl]benzamide] | < 500
O=C(NC1CC1)c1ccc(-c2cnc3ncc(C4(c5ccc6ncccc6c5)CC4)n3c2)cc1Cl [Example 175, 2-Chloro-N-cyclopropyl-4-[3-(1-quinolin-6-ylcyclopropyl)imidazo[1,2-a]pyrimidin-6-yl]benzamide] | < 500
O=C(NC1CCOC1)c1ccc(-c2cnc3ncc(C4(c5ccc6ncccc6c5)CC4)n3c2)cc1Cl (stereo not drawn) [Example 176, 2-Chloro-4-[3-(1-quinolin-6-ylcyclopropyl)imidazo[1,2-a]pyrimidin-6-yl]-N-(tetrahydrofuran-3-yl)benzamide] | < 500

The remaining lines, values ahead:

IC50 [nM] | Compound
< 500 | COCC1(NC(=O)c2ccc(-c3cnc4ncc(Cc5ccc6ncccc6c5)n4n3)cc2F)CCC1 [Example 144, 2-Fluoro-N-[1-(methoxymethyl)cyclobutyl]-4-[7-(quinolin-6-ylmethyl)imidazo[1,2-b][1,2,4]triazin-2-yl]benzamide]
< 500 | COCC1(NC(=O)c2ccc(-c3cnc4ncc(Cc5ccc6ncccc6c5)n4n3)cc2F)CCOCC1 [Example 145, 2-Fluoro-N-[4-(methoxymethyl)tetrahydro-2H-pyran-4-yl]-4-[7-(quinolin-6-ylmethyl)imidazo[1,2-b][1,2,4]triazin-2-yl]benzamide]
< 500 | O=C(NCC1CC1)c1ccc(-c2cnc3ncc(Cc4ccc5ncccc5c4)n3n2)cc1F [Example 146, N-(Cyclopropylmethyl)-2-fluoro-4-[7-(quinolin-6-ylmethyl)imidazo[1,2-b][1,2,4]triazin-2-yl]benzamide]
< 500 | O=C(NCC1CCOCC1)c1ccc(-c2cnc3ncc(Cc4ccc5ncccc5c4)n3n2)cc1F [Example 147, 2-Fluoro-4-[7-(quinolin-6-ylmethyl)imidazo[1,2-b][1,2,4]triazin-2-yl]-N-(tetrahydro-2H-pyran-4-ylmethyl)benzamide]
< 500 | CN(C)CCNC(=O)c1ccc(-c2cnc3ncc(Cc4ccc5ncccc5c4)n3n2)cc1F [Example 148, N-[2-(Dimethylamino)ethyl]-2-fluoro-4-[7-(quinolin-6-ylmethyl)imidazo[1,2-b][1,2,4]triazin-2-yl]benzamide]
< 500 | O=C(NCCN1CCCCC1)c1ccc(-c2cnc3ncc(Cc4ccc5ncccc5c4)n3n2)cc1F [Example 149, 2-Fluoro-N-(2-piperidin-1-ylethyl)-4-[7-(quinolin-6-ylmethyl)imidazo[1,2-b][1,2,4]triazin-2-yl]benzamide]
< 500 | CN1CCCC1CCNC(=O)c1ccc(-c2cnc3ncc(Cc4ccc5ncccc5c4)n3n2)cc1F (stereo not drawn) [Example 150, 2-Fluoro-N-[2-(1-methylpyrrolidin-2-yl)ethyl]-4-[7-(quinolin-6-ylmethyl)imidazo[1,2-b][1,2,4]triazin-2-yl]benzamide]
< 500 | O=C(NCc1ccccn1)c1ccc(-c2cnc3ncc(Cc4ccc5ncccc5c4)n3n2)cc1F [Example 151, 2-Fluoro-N-(pyridin-2-ylmethyl)-4-[7-(quinolin-6-ylmethyl)imidazo[1,2-b][1,2,4]triazin-2-yl]benzamide]
< 500 | O=C(NCc1cccnc1)c1ccc(-c2cnc3ncc(Cc4ccc5ncccc5c4)n3n2)cc1F [Example 152, 2-Fluoro-N-(pyridin-3-ylmethyl)-4-[7-(quinolin-6-ylmethyl)imidazo[1,2-b][1,2,4]triazin-2-yl]benzamide]
< 500 | O=C(NCc1ccncc1)c1ccc(-c2cnc3ncc(Cc4ccc5ncccc5c4)n3n2)cc1F [Example 153, 2-Fluoro-N-(pyridin-4-ylmethyl)-4-[7-(quinolin-6-ylmethyl)imidazo[1,2-b][1,2,4]triazin-2-yl]benzamide]
< 500 | O=C(NCCc1ccccn1)c1ccc(-c2cnc3ncc(Cc4ccc5ncccc5c4)n3n2)cc1F [Example 154, 2-Fluoro-N-(2-pyridin-2-ylethyl)-4-[7-(quinolin-6-ylmethyl)imidazo[1,2-b][1,2,4]triazin-2-yl]benzamide]
< 500 | CC(NC(=O)c1ccc(-c2cnc3ncc(Cc4ccc5ncccc5c4)n3n2)cc1F)c1cccnc1 (stereo not drawn) [Example 155, 2-Fluoro-N-(1-pyridin-3-ylethyl)-4-[7-(quinolin-6-ylmethyl)imidazo[1,2-b][1,2,4]triazin-2-yl]benzamide]
< 500 | CC(NC(=O)c1ccc(-c2cnc3ncc(Cc4ccc5ncccc5c4)n3n2)cc1F)c1ccncc1 (stereo not drawn) [Example 156, 2-Fluoro-N-(1-pyridin-4-ylethyl)-4-[7-(quinolin-6-ylmethyl)imidazo[1,2-b][1,2,4]triazin-2-yl]benzamide]
< 500 | CC(C)(C)[C@@H](CO)NC(=O)c1ccc(-c2cnc3ncc(Cc4ccc5ncccc5c4)n3n2)cc1F [Example 157, 2-Fluoro-N-[(1S)-1-(hydroxymethyl)-2,2-dimethylpropyl]-4-[7-(quinolin-6-ylmethyl)imidazo[1,2-b][1,2,4]triazin-2-yl]benzamide]
< 500 | O=C(NC1(CO)CCCC1)c1ccc(-c2cnc3ncc(Cc4ccc5ncccc5c4)n3n2)cc1F [Example 158, 2-Fluoro-N-[1-(hydroxymethyl)cyclopentyl]-4-[7-(quinolin-6-ylmethyl)imidazo[1,2-b][1,2,4]triazin-2-yl]benzamide]
< 500 | CC(c1ccc2ncccc2c1)c1cnc2ncc(-c3ccc(C(=O)NC4CC4)c(F)c3)nn12 (stereo not drawn) [Example 161, N-Cyclopropyl-2-fluoro-4-[7-(1-quinolin-6-ylethyl)imidazo[1,2-b][1,2,4]triazin-2-yl]benzamide]
